{"source": "patent US5824521A", "about": "“Saccharide composition containing trehalulose, its preparation and uses” (Kabushiki Kaisha Hayashibara Seibutsu Kagaku Kenkyujo, priority 1996, dated 1998)", "key": {"[1]": {"test_system": "maltose/trehalose converting enzymes", "conditions": "one mM; cited from earlier work"}, "[2]": {"conditions": "in vivo, po", "procedure": "In accordance with the method as reported by H. Atsuji et al. in \"Journal of Clinical Nutrition\", Vol.41, No.2, pp.200-208 (1972), 30 g of the saccharide powder rich in trehalulose with a purity of 98%, d.s.b., in Experiment 8 was prepared into a 20 w/v % aqueous solution which was then orally administered to 3 healthy male volunteers, and their blood were sampled at a prescribed time interval, followed by assaying the blood sugar- and insulin-levels. As a control glucose was used."}, "α-glucosidase from yeast": {"biological_target": "α-glucosidase from yeast (Saccharomyces cerevisiae, UniProt P53341)", "sequence (P53341 whole entry)": "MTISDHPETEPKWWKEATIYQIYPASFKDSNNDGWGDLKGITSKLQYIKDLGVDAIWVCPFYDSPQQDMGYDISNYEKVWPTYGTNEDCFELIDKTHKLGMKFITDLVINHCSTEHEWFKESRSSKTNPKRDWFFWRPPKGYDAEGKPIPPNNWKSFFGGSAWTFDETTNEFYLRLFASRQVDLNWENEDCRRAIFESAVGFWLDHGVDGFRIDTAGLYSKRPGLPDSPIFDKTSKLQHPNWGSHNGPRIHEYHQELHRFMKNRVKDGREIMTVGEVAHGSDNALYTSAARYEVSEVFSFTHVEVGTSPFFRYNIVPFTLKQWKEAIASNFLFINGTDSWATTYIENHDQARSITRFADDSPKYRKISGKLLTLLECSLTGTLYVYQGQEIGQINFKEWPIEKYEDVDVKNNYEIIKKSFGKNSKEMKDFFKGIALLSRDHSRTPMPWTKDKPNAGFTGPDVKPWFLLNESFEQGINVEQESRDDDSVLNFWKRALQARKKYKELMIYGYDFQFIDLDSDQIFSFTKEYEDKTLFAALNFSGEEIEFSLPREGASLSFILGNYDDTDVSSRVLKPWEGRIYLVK", "experiment": "Hydrolysis by enzyme: α-glucosidase", "type": "biochemical", "conditions": "into glucose and fructose", "experimental": "(§1) To identify the substance \"X\", the following confirmation tests were conducted using a high purity saccharide powder containing trehalulose prepared in Experiment 8: […]"}, "dd-strain mice": {"test_system": "dd-strain mice", "experiment": "Acute toxicity test", "type": "in vivo", "conditions": "oral, 7-week-old, higher dose test impossible", "text": "No mouse died up to a dose of 15 g/kg mouse by weight and a higher dose test was impossible. Thus the toxicity of the saccharide is extremely low."}, "invertase from yeast": {"biological_target": "T1, invertase from yeast (Saccharomyces cerevisiae, UniProt P00724)", "T1 sequence (P00724 20-532)": "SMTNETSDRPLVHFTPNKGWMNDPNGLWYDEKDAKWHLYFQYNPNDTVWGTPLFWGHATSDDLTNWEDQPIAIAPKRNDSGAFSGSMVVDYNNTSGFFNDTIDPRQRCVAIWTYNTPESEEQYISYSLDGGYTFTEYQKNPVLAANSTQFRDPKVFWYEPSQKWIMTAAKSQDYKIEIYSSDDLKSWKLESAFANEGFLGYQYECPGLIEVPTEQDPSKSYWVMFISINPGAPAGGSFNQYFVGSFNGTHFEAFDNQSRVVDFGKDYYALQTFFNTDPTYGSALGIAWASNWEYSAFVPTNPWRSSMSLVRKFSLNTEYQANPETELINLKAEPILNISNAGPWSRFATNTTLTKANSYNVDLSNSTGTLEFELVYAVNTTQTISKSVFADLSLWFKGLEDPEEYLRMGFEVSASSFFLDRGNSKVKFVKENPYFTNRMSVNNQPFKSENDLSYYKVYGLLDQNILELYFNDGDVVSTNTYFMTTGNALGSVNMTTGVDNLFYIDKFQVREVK", "experiment": "Hydrolysis by enzyme: invertase", "type": "biochemical", "experimental": "as §1"}}, "note": "Counter-ions that a name gives are not always drawn."}
{"smiles": "[Hg+2]", "note": "[Hg^++]", "values": [{"measurement": "Inhibition of enzyme activity", "setting": "[1]", "result": "inhibited"}]}
{"smiles": "[Cu+2]", "note": "[Cu^++]", "values": [{"measurement": "Inhibition of enzyme activity", "setting": "[1]", "result": "inhibited"}]}
{"smiles": "O=C(CO[C@H]1O[C@H](CO)[C@@H](O)[C@H](O)[C@H]1O)[C@@H](O)[C@H](O)[C@H](O)CO", "note": "[Trehalulose, 1-O-α-D-glucopyranosyl-D-fructose]", "values": [{"measurement": "Time of highest blood sugar-level after the administration", "setting": "[2]", "result": "0.5 to 1", "unit": "h"}, {"measurement": "Time of highest insulin-level after the administration", "setting": "[2]", "result": "0.5 to 1", "unit": "h"}, {"measurement": "Hydrolysis by α-glucosidase from yeast", "setting": "α-glucosidase from yeast", "result": "Hydrolyzed"}, {"measurement": "Acute toxicity: lethal dose (no mouse died up to this dose)", "setting": "dd-strain mice", "result": "> 15000", "unit": "mg/kg"}, {"measurement": "Hydrolysis by an invertase from yeast", "setting": "invertase from yeast", "result": "Not hydrolyzed"}]}
{"smiles": "NC(CO)(CO)CO", "note": "[Tris-HCl buffer]", "values": [{"measurement": "Inhibition of enzyme activity", "setting": "[1]", "result": "inhibited"}]}
